Patent US6750199B2, “Antimicrobial sulfonamide derivatives of lipopeptide antibiotics” (Micrologix Biotech Inc., priority 2000, dated 2004)
Values after ≈ are worked out from the molar mass of the structure shown. Like-named read-outs stand apart in the source and are kept apart here. Starred links: 1 amine or outer side, 2 acyl side, 3 side chain; linkers in the order of their positions; H or OH if unused. Positions of bridges follow the written chain, without caps; N, C: chain ends. Non-standard residues stand in square brackets, D forms with d. Residues, ends and D or L forms follow the SMILES beside them. ξ: configuration not given here. *: point of attachment. Hexadecanesulfonyl = CCCCCCCCCCCCCCCCS(=O)(=O)*; ξAbu(βξ-NH2) = CC(N[*:3])C(N[*:1])C(=O)[*:2]; ξAsp(βξ-Me) = CC(C(=O)O)C(N)C(=O)O; ξAbu(3ξ-NH2) = CC(N)C(N)C(=O)O; X1 = CCCCCCCCCCS(=O)(=O)*; Pip = O=C(O)[CH]1CCCCN1; ξD = NC(CC(=O)O)C(=O)O; Dap = NC[CH](N)C(=O)O; ξI = CCC(C)C(N)C(=O)O; ξPip = O=C(O)C1CCCCN1; ξT = CC(O)C(N)C(=O)O; ξDap = NCC(N)C(=O)O; ξP = O=C(O)C1CCCN1

Legend:
[1] = system: Staphlococcus aureus strain Smith; format: cell-based
Protocol: MIC values were determined by microliter serial dilution using Staphlococcus aureus strain Smith as the assay organism, which was grown in Mueller-Hinton broth with and without CaCl2.

Staphylococuss aureus = assay: Resistance to deacylase enzyme: agar well zone diffusion bioassay of deacylase broth samples; format: cell-based; conditions: 9 mm well, 100 μl of sample, incubated 16 hrs. at 28° C.; for Bioassay zone dia. 16 hours: after 16 hours in deacylase broth, 200 rpm, 84° C.; for Bioassay zone dia. Zero time: zero time in deacylase broth
Protocol: (§1) One milligram of the hexadecylsulfonyl-L-tryptophan derivative of the core antibiotic of laspartomycin (see Section 5.4 for preparation) was added to 2 mL of deacylase broth (prepared as described in Section 5.1) and a zero time sample (0.5 mL) was removed and stored by freezing. The reaction mixture was placed on a shaker at 200 rpm and 84° C. for 16 hours. The zero and 16 hour samples were then studied by HPLC and by agar well zone diffusion assay using Staphylococuss aureus as a test organism. The same conditions were used to compare laspartomycin to enzyme deactivation. […] Under the same conditions Antibiotic A21978C and Aspartocin were completely deactivated within two hours and 16 hours, respectively.

deacylase broth = assay: in vitro; format: in vitro ADME, Actinoplanes utahensis NRRL 12052
Protocol: (§2) The high-producing, natural variant was used in the known fermentation protocol employed (Boeck et al., 1988. J. Antibiot., 41, 1085). A stock culture of Actinoplanes utahensis NRRL 12052 variant, preserved in 20% glycerol at −70° C., was introduced into a 25×150 mm test tube containing 10 mL of a medium comprised of 2.0% sucrose, 2.0% pre-cooked oatmeal, 0.5% distiller's grain, 0.25% yeast, 0.1% K2HPO4, 0.05% KCl, 0.05% MgSO4-7H2O and 0.0002% FeSO4-7H2O in deionized water. After incubation at 30° C. for 72 hrs on a rotary shaker orbiting at 250 rpm the resulting mycelial suspension was transferred into 50 mL of PM3 medium in a 250 mL Erlenmeyer flask. The PM3 medium contained 2.0% sucrose, 1.0% peanut meal, 0.12% K2HPO4, 0.05% KH2PO4 and 0.025% MgSO4-7H2O, in tap water. The flask was incubated at a temperature of 30° C. for a period of between 60 to 90 hrs. The whole broth from this fermentation contained the deacylase enzyme.
as §1

deacylase = assay: in vitro; format: in vitro ADME, Actinoplanes utahensis NRRL 12052; conditions: Actinoplanes utahensis, cells or culture medium
Protocol: as §2, §1

Staphylococcus aureus = assay: MIC against Staphylococcus aureus (comparison with aspartocin); format: cell-based
Protocol: One drop of piperdine was added to about 5.5 mg of the product from Section 5.2.4 dissolved in 2.0 mL of 2:1 mixture of dimethylsulfoxide:methanol. Monitoring by HPLC indicated the reaction was complete after 60 minutes at room temperature. The reaction was quenched by addition of 6.0 mL cooled 0.2 M ammonium phosphate at pH 7.2. The quenched reaction mixture was applied to a 0.5 g resin cartridge (ENVI-Chrom P) and eluted with a stepwise gradient of pH 7.2 phosphate-buffered aqueous acetonitrile. The product was eluted with 25% acetonitrile. Appropriate fractions were pooled and acetonitrile was removed under vacuum at room temperature. The product was desalted by adsorption onto a 0.5 g resin cartridge which was then rinsed with 10% acetonitrile, followed by 50% acetonitrile. The 50% acetonitrile eluate was evaporated to remove acetonitrile and the resulting aqueous solution freeze dried to provide about 1.5 mg of white solid. FAB-MS: m/z 1379 (M+Na)^+ was consistent with the expected structure.

CCCCCCCCCCCCCCCCS(=O)(=O)NC(Cc1c[nH]c2ccccc12)C(=O)NC(CC(=O)O)C(=O)NC1CNC(=O)C2CCCN2C(=O)C(C(C)CC)NC(=O)C(C(C)O)NC(=O)CNC(=O)C(CC(=O)O)NC(=O)CNC(=O)C(CC(=O)O)NC(=O)CNC(=O)C2CCCCN2C1=O (stereo not drawn) [Compound 52] (Hexadecanesulfonyl-WD[Dap][Pip]GDGDGTIP; lactam 3-C; configuration not given here)
MIC w CaCl2 (4 mm) [1]: 4000 µg/mL (≈ 2670 µM)
MIC w/o CaCl2 [1]: 8000 to 16000 µg/mL

CCCCCCCCCCCCCCCCS(=O)(=O)NC(Cc1ccccc1)C(=O)NC(CC(=O)O)C(=O)NC1CNC(=O)C2CCCN2C(=O)C(C(C)CC)NC(=O)C(C(C)O)NC(=O)CNC(=O)C(CC(=O)O)NC(=O)CNC(=O)C(CC(=O)O)NC(=O)CNC(=O)C2CCCCN2C1=O (stereo not drawn) [Compound 56] (Hexadecanesulfonyl-FD[Dap][Pip]GDGDGTIP; lactam 3-C; configuration not given here)
MIC w CaCl2 (4 mm) [1]: 4000 µg/mL (≈ 2740 µM)
MIC w/o CaCl2 [1]: 8000 µg/mL (≈ 5480 µM)

CCCCCCCCCCS(=O)(=O)NCC(=O)NC(CC(=O)O)C(=O)NC1C(=O)N2CCCCC2C(=O)NC(C(C)C(=O)O)C(=O)NC(CC(=O)O)C(=O)NCC(=O)NC(CC(=O)O)C(=O)NCC(=O)NC(C(C)N)C(=O)NC(C(C)C)C(=O)N2CCCC2C(=O)NC1C (stereo not drawn) [Compound 58] (X1-GD[ξAbu(βξ-NH2)][Pip][ξAsp(βξ-Me)]DGDG[ξAbu(3ξ-NH2)]VP; lactam 3-C; configuration not given here)
MIC w CaCl2 (4 mm) [1]: 1000 µg/mL (≈ 737 µM)
MIC w/o CaCl2 [1]: 32000 µg/mL (≈ 23600 µM)

CCCCCCCCCCCCCCCCS(=O)(=O)NC(Cc1ccccc1)C(=O)NC(CC(=O)O)C(=O)NC1C(=O)N2CCCCC2C(=O)NC(C(C)C(=O)O)C(=O)NC(CC(=O)O)C(=O)NCC(=O)NC(CC(=O)O)C(=O)NCC(=O)NC(C(C)N)C(=O)NC(C(C)C)C(=O)N2CCCC2C(=O)NC1C (stereo not drawn) [Compound 62] (Hexadecanesulfonyl-FD[ξAbu(βξ-NH2)][Pip][ξAsp(βξ-Me)]DGDG[ξAbu(3ξ-NH2)]VP; lactam 3-C; configuration not given here)
MIC w CaCl2 (4 mm) [1]: 4000 µg/mL (≈ 2610 µM)
MIC w/o CaCl2 [1]: 4000 µg/mL (≈ 2610 µM)

CCCCCCCCCCCCCCCCS(=O)(=O)N[C@@H](Cc1c[nH]c2ccccc12)C(=O)N[C@@H](CC(=O)O)C(=O)NC1CNC(=O)C2CCCN2C(=O)C(C(C)CC)NC(=O)C(C(C)O)NC(=O)CNC(=O)C(CC(=O)O)NC(=O)CNC(=O)C(CC(=O)O)NC(=O)CNC(=O)C2CCCCN2C1=O (stereo partly drawn) [Hexadecylsulfonyl-L-Tryptophan Derivative of the Core Antibiotic of Laspartomycin] (Hexadecanesulfonyl-WD[ξDap][ξPip]G[ξD]G[ξD]G[ξT][ξI][ξP]; lactam 3-C)
Bioassay zone dia. 16 hours (Staphylococuss aureus): 12.8 mm
Bioassay zone dia. Zero time (Staphylococuss aureus): 13.7 mm
HPLC Peak Area zero time (deacylase broth): 100%
deactivation / degradation by the enzyme preparation (in words) (deacylase broth): degraded at a much slower rate
remaining at 16 h, 0.5 mg/mL (deacylase): 53%

Decanesulfonylglycyl Aspartocin [decanesulfonylglycyl derivative]
MIC values compared with aspartocin (Staphylococcus aureus): essentially the same as those for aspartocin

laspartomycin [reference compound]
MIC w CaCl2 (4 mm) ([1]; S. aureus strain Smith, Mueller-Hinton broth, with CaCl2 (4 mm)): 2000 µg/mL
MIC w/o CaCl2 ([1]; S. aureus strain Smith, Mueller-Hinton broth, without CaCl2): 16000 µg/mL
Bioassay zone dia. 16 hours (Staphylococuss aureus): no zone
Bioassay zone dia. Zero time (Staphylococuss aureus): 15.5 mm
HPLC Peak Area zero time (deacylase broth): 100%
deactivation / degradation by the enzyme preparation (in words) (deacylase broth): complete deactivation
HPLC Peak Area 16 hours (deacylase broth; Actinoplanes utahensis, cells or culture medium, 16 h, 0.5 mg/mL): 0%
